Measured values: patent US20230287066A1, “MATERIALS AND METHODS FOR MAKING SEXUAL STAGE […]” (The Penn State Research Foundation, priority 2020, published 2023)

What was measured:
[1] = test system: AP2-G-HA-FKBP polypeptide; assay: Conditional knockdown of PfAP2-G fused to FKBP destabilization domain; assay type: cell-based, Plasmodium falciparum; conditions: in the presence of Shld1; AP2-G-HA-FKBP parasites (FIG. 1)
Text: A regulatable knockdown of PfAP2-G was generated by engineering a transgenic line with AP2-G fused to an FKBP destabilization domain (DD) as described elsewhere (see, e.g., Kafsack et al., Nature, 507(7491):248-52 (2014)). Briefly, a construct encoding an AP2-G polypeptide fused to an HA-tag and an FKBP DD (e.g., an AP2-G-HA-FKBP polypeptide) was stably integrated into the genome of Plasmodium falciparum lines.
In the absence of the ligand Shield-1 (Shld1), the FKBP destabilization domain was unstable and targets fusion proteins for proteolytic degradation.

[2] = test system: P. falciparum expressing a regulatable AP2-G polypeptide and having a reduced level of histone modification at the 3′ pairing element of the pfap2-g locus; assay: Gametocytogenesis (percentage sexual conversion) of engineered parasites treated with Shld1; assay type: cell-based, Plasmodium falciparum; conditions: in the presence of a Shld1 molecule; 3′ pairing element mutant AP2-G-HA-FKBP parasites
Protocol: The number of gametocytes was determined by splitting the culture in two and treating half with Shld1 and half with the same volume of the vehicle (Day 1). The parental cell line (AP2-G-HA-FKBP) and the pairing element mutant were tested in parallel. After 48 hours (on Day 3), the number of parasites present was counted by microscopy and N-acetylglucosamine was added to all cultures to specifically kill asexual parasites. On Day 9, when gametocytes developed enough that they were readily distinguished from asexual stage parasites by morphology, the number of gametocytes were counted by microscopy. Percentage sexual conversion was calculated by dividing this by the proportion of parasite-infected red blood cells on Day 3.

CC[C@H](C(=O)N1CCCC[C@H]1C(=O)O[C@H](CCc1ccc(OC)c(OC)c1)c1cccc(OCCN2CCOCC2)c1)c1cc(OC)c(OC)c(OC)c1 [Shld1]
stabilization of FKBP destabilization domain / gametocyte production [1]: gametocytes were produced | P. falciparum that commit to gametocytogenesis and form sexual stage parasites [2]: over 60%
